Converted amounts (≈) assume the structure as drawn. Structures can show the parent of a compound that is named as a salt.
Columns and labels:
[1] = test system: Human Heme Oxygenase-1 (HMOX-1); experiment: ELISA assay to measure human heme oxygenase-1 (HMOX-1) in HepG2 lysate; type: cell-based; conditions: for Maximum Fold induction: fold change of human HMOX1 protein levels relative to DMSO control, HepG2; for EC50: human HMOX1 protein in HepG2 lysate, ELISA, * = average of 2 or more EC50 determinations, NA = Not Active
In short: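 HO-1 protein quantified by chemiluminescent sandwich ELISA against a 2-fold standard series starting at 20 ng/ml. Samples were 1:20-diluted HepG2 lysates made in Triton X-100/EDTA buffer with protease inhibitors. Capture antibody coated at 8 μg/ml, detection antibody used at 200 ng/ml, room-temperature (20 °C) steps.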

Kinetic solubility = type: physicochemical; conditions: Dulbecco's phosphate buffered saline (DPBS), aqueous buffer, kinetic from dmso stock, DPBS pH 7.4, 25° C., 200 μM test compound
Experimental: 10 μL of 10 mM DMSO stock solution were aliquotted to 490 μL of DMSO solution and separately 490 μL of Dulbecco's phosphate buffer saline, DPBS, pH 7.4 solution in 1.2 mL 96-well plates in duplicate. Final concentration was 200 μM of the test compound. Samples were incubated at 25° C. with shaking at 200 rpm for 16 h. Samples were centrifuged at 3500 rpm for 20 min at 25° C., and supernatant was submitted for HPLC analysis.
Kinetic solubility was measured using the following equation: […]

FTH1 = FTH1 mRNA expression in HepG2 cells (Nanostring); type: cell-based, human; conditions: 24 hours treatment
Experimental: RNA Isolation and Quantification of Gene Expression
HepG2 cells were seeded at 250 k/well in 12-well tissue culture plates coated with collagen (collagen I, rat tail (thin plate coating); ENZO Life Sciences) for approximately 24 hours. The seeded cells were then treated with dose titration of the compound of Example 17 or dimethyl fumarate (DMF) (a Nrf2 activator; Fisher Scientific) via media change, with biological triplicates performed for each treatment. After approximately 24 hours of treatment, cells were visually inspected to confirm that no toxicity occurred with compound treatment. The treated cells were washed with PBS, aspirated, parafilmed and frozen at −80° C. prior to RNA isolation. RNA was isolated using Machery-Nagel isolation kit (NucleoSpin® RNA: catalog 740955.250) and then quantitated using ThermoFisher Nanodrop.
RNA was diluted for Nanostring gene expression analysis. The diluted RNA at an input of 200ng RNA was run on a Nanostring instrument, which was supported with nCounter® SPRINT Profiler System and nSolver4.0 Software, nCounter® SPRINT Cartridge, nCounter® SPRINT Reagent Pack, and nCounter© SPRINT Hybridization Buffer. Analysis was done manually using raw data obtained from nSolver4.0 Software. CLTC, POLR2A, RPL27 and TBP were used as reference genes for normalization. Data was graphed as fold change compared to DMSO treatment. […]

Heme Oxygenase 1 (HO1) = experiment: PD study, HMOX1 protein levels in mouse plasma and liver (ELISA); type: in vivo; conditions: HMOX1 protein fold induction vs time-matched vehicle, 50 mpk oral; for Liver Protein (3 h) / Liver Protein (6 h): mouse liver; for Plasma Protein (3 h) / Plasma Protein (6 h): mouse plasma
Experimental: 9-10 week old male C57BL/6 mice were dosed orally with 50 mg/kg of vehicle or compound formulated in 5% w/v tween 80 and 0.5% methyl cellulose. At indicated time points (3 and 6 hours or or 4 and 8 hours post-dosing as shown in the results below), whole blood was collected, animal was sacrificed and liver was collected. Blood samples were transferred to vials containing 4 μL of 10% w/v EDTA, centrifuged at 6000 rpm for 8 in below 10° C. to obtain plasma. Samples were frozen and later processed for HMOX1 protein levels as indicated below:
HMOX 1 Protein Levels: Mouse Liver
Preparation of Homogenization/Lysis Buffer
The homogenization buffer was prepared according Table A.
Immediately prior to use, add DTT (ThermoScientific #R0861) to a final concentration of 5 mM and 100×Halt Protease & Phosphatase Inhibitor Cocktail (ThermoScientific #78440) to a final concentration of 1×.
Preparation of Mouse Liver Samples
Liver samples were crushed by mortar and pestle under freezing conditions. Pulverized tissue was transferred into pre-chilled bead ruptor OMNI tubes (OMNI International, Cat #19-628). 1 mL of homogenization buffer (+DTT and HALT) was added to pulverized tissue and tubes were placed on ice. Samples were loaded and run through bead ruptor at speed 5.64 m/s, for two 20 sec cycles with 10 sec dwell between cycles and samples were immediately returned to ice. All material was transferred to a new chilled 2 mL Eppendorf tube. Samples were centrifuged for 5 minutes at 2,000 rpm at 4° C. Supernatant was transferred to a fresh chilled 1.7 mL Eppendorf tube. Samples were centrifuged for 5 minutes at 2,000 rpm at 4° C. The supernatant, consisting of cytosol and microsomes, was transferred to a fresh chilled 1.7 mL Eppendorf tube. Samples were stored at −80° C. Microsome samples were quantitated using Pierce 660 Assay (ThermoFisher Cat #22660) with pre-diluted BSA standards (ThermoFisher Cat #23208) ranging from 125-2000 μg/mL. Each sample was diluted to 10ng/ul for an ELISA input of 0.5ug in 50ul.
Preparation of Assay Reagents
All assay reagents were provided in the Heme Oxygenase 1 (HO1) Mouse SimpleStep ELISA Kit (Abcam #ab204524). Prior to use, all reagents were equilibrated to room temperature. 1×Wash Buffer PT was prepared by diluting 10×Wash Buffer PT 1:10 with deionized water. Antibody cocktail was prepared by diluting the 10×Capture Antibody and 10×Detector Antibody to 1×in Antibody Diluent 5BI. Mouse heme oxygenase 1 protein standard was reconstituted using 500ul homogenization buffer (Table A), mixed and held at room temperature for 10 minutes prior to dilution. An eight point standard curve was generated by diluting the Stock Standard 1:2 for standard curve ranging from 10,000-156.3 pg/mL.
Heme Oxygenase 1 (HO1) Mouse SimpleStep ELISA
50ul of all samples and standards were added to appropriate wells in duplicate. 50ul of 1×Antibody Cocktail was added to each well. The plate was sealed with provided seal and incubated at room temperature on a plate shaker at 400 rpm. After one hour incubation, the Antibody Cocktail was aspirated and the wells were washed three times with 350ul 1×Wash Buffer PT, aspirating completely between each step. After the last wash was aspirated dry, 100ul TMB Substrate was added to each well and the plate was incubated in the dark at room temperature for 10 minutes on a plate shaker at 400 rpm. After the 10 minute incubation, 100ul of Stop Solution was added to each well. Plate was shaken at 400 rpm for 1 minute to mix. Softmax Pro 7.0.3 was used to read OD at 450 nm as well as for analysis.
Heme Oxygenase 1 Protein Levels in Mouse Plasma
All assay reagents were provided in the Heme Oxygenase 1 (HO1) Mouse SimpleStep ELISA Kit (Abcam #ab204524). 1×Wash Buffer PT was prepared by diluting 10×Wash Buffer PT 1:10 with deionized water. Antibody cocktail was prepared by diluting the 10×Capture Antibody and 10×Detector Antibody to 1×in Antibody Diluent 5BI. […]

[2] = PK study, plasma and brain levels in C57BL/6 mice; type: in vivo, mouse; conditions: male C57BL/6 mice, 50 mg/kg oral
Experimental: 9-10 week old male C57BL/6 mice were dosed orally with 50 mg/kg of the test compound formulated in 5% w/v tween 80 and 0.5% methyl cellulose. At 0.5 and 4 h post dosing, whole blood was collected, animals were sacrificed and brain tissues were collected. The blood samples were immediately placed on ice, and centrifuged within 60 min at 4° C. for 3 min at 14000 rpm to obtain plasma. Plasma was transferred by pipette to pre-labeled Eppendorf tubes, stored at −80° C. until analyzed.
Brain tissue samples were collected and rinsed with fresh ice cold 0.9% NaCl solution, dried quickly and thereafter frozen on dry ice/liquid nitrogen and stored at −70±10° C. until analyzed. Homogenization was done using phosphate buffer saline and used for analysis. Bioanalysis was performed using LC-MS/MS (API 4000).

[3] = PD study, liver compound concentration in mice; type: in vivo; conditions: mouse liver, 50 mpk oral

CC1CCc2nc(Nc3nc4cc(C(=O)NCCOCCO)ccc4n3C)sc2C1 (centres unmarked) [Example 7, N-(2-(2-hydroxyethoxy)ethyl)-1-methyl-2-((6-methyl-4,5,6,7-tetrahydrobenzo[d]thiazol-2-yl)amino)-1H-benzo[d]imidazole-5-carboxamide]
Maximum Fold induction [1]: 27 | EC50 [1]: 2700 nM | solubility at 16 h (Kinetic solubility): 7.2 µM (≈ 3.09 µg/mL)

COC(=O)/C=C/C(=O)OC [DMF, dimethyl fumarate, reference compound]
FTH1 expression fold increase (FTH1): comparable fold increases

Cn1c(Nc2nc3ccc(OC(F)(F)F)cc3s2)nc2cc(C(=O)NCCOCCO)ccc21 [Comparator 1, 1-methyl-2-(6-trifluoromethoxy-benzothiazol-2-ylamino)-1H-benzoimidazole-5-carboxylic acid [2-(2-hydroxyethoxy)-ethyl]-amide, reference compound]
Liver Protein (3 h) (Heme Oxygenase 1 (HO1)): 1.6x | Liver Protein (6 h) (Heme Oxygenase 1 (HO1)): 3.2x | Plasma Protein (3 h) (Heme Oxygenase 1 (HO1)): 1.1x | Plasma Protein (6 h) (Heme Oxygenase 1 (HO1)): 1.3x

COCCNC(=O)c1ccc2c(c1)nc(Nc1nc3ccc(OCCOC)cc3o1)n2C [Example 56, 2-((6-(2-methoxyethoxy)benzo[d]oxazol-2-yl)amino)-N-(2-methoxyethyl)-1-methyl-1H-benzo[d]imidazole-5-carboxamide]
Maximum Fold induction [1]: 21-38 | brain penetration [2]: good brain penetration

Cl.Cn1c(Nc2nc3c(s2)CNCC3)nc2cc(C(=O)NCCOCCO)ccc21 [Example 9, N-(2-(2-hydroxyethoxy)ethyl)-1-methyl-2-((4,5,6,7-tetrahydrothiazolo[5,4-c]pyridin-2-yl)amino)-1H-benzo[d]imidazole-5-carboxamide hydrochloride]
Maximum Fold induction [1]: 2 | solubility at 16 h (Kinetic solubility): 2.8 µM

Cn1c(Nc2nc3cc(OC(F)(F)F)ccc3[nH]2)nc2cc(C(=O)O)ccc21 [Example 13, 1-methyl-2-((5-(trifluoromethoxy)-1H-benzo[d]imidazol-2-yl)amino)-1H-benzo[d]imidazole-5-carboxylic acid]
Maximum Fold induction [1]: 6-27 | Liver Protein (3 h) (Heme Oxygenase 1 (HO1)): 1.8x | Liver Protein (6 h) (Heme Oxygenase 1 (HO1)): 1.2x | Plasma Protein (3 h) (Heme Oxygenase 1 (HO1)): 1.1x | Plasma Protein (6 h) (Heme Oxygenase 1 (HO1)): 0.8x

Cn1c(Nc2nc3c(s2)CC(C)(C)CC3)nc2cc(C(=O)NCCOCCO)ccc21 [Example 6, 2-((6,6-dimethyl-4,5,6,7-tetrahydrobenzo[d]thiazol-2-yl)amino)-N-(2-(2-hydroxyethoxy)ethyl)-1-methyl-1H-benzo[d]imidazole-5-carboxamide]
Maximum Fold induction [1]: 41 | EC50 [1]: 3000 nM | solubility at 16 h (Kinetic solubility): 8.1 µM (≈ 3.59 µg/mL)

Cn1c(Nc2nc3ccc(OC(F)(F)F)cc3o2)nc2cc(C(=O)O)ccc21 [Example 44, 1-methyl-2-((6-(trifluoromethoxy)benzo[d]oxazol-2-yl)amino)-1H-benzo[d]imidazole-5-carboxylic acid]
Maximum Fold induction [1]: 9-14 | Liver Conc uM (3 h) ([3]; 3 h): 217 µM | Liver Conc uM (6 h) ([3]; 6 h): 162 µM | Liver Protein (3 h) (Heme Oxygenase 1 (HO1)): 1.6x | Liver Protein (6 h) (Heme Oxygenase 1 (HO1)): 2.1x | Plasma Protein (3 h) (Heme Oxygenase 1 (HO1)): 1.0 x | Plasma Protein (6 h) (Heme Oxygenase 1 (HO1)): 1.1x

Cn1c(Nc2nc3ccccc3o2)nc2cc(C(=O)NCCNC3=NCCN3)ccc21 [Example 22, 2-(benzo[d]oxazol-2-ylamino)-N-(2-((4,5-dihydro-1H-imidazol-2-yl)amino)ethyl)-1-methyl-1H-benzo[d]imidazole-5-carboxamide]
Maximum Fold induction [1]: 18 | solubility at 16 h (Kinetic solubility): 3.5 µM (≈ 1.46 µg/mL)

COCCNC(=O)c1ccc2c(c1)nc(Nc1nc3c(s1)CCC3)n2C [Example 8, 2-((5,6-dihydro-4H-cyclopenta[d]thiazol-2-yl)amino)-N-(2-methoxyethyl)-1-methyl-1H-benzo[d]imidazole-5-carboxamide]
Maximum Fold induction [1]: 5-8 | EC50 [1]: 2500 nM | solubility at 16 h (Kinetic solubility): 6.9 µM (≈ 2.56 µg/mL)
